# Experimental data taken from publication PMC11050952 (Marine Drugs, 2024).
# Values joined by “and” are separate entries in the source; they are usually repeats but may differ in a detail not shown here. Equal entries are not always repeated. “Also recorded” adds a separate entry of the source. Where two headings read alike, the source gives them in different places.
# How the values were obtained:
# [1] = system: Nav currents in Neuro-2a cells (voltage-gated sodium channels, VGSCs); format: cell-based, murine
# Neuro-2a cells = conditions: cited from earlier work
# [2] = read-out: IC50 (inhibition of Nav currents)
smiles,measurement,setting,value
"CCN(CC)CC(=O)Nc1c(C)cccc1C [Lidocaine, lidocaine]",IC50,[1]; [2],717000 nM
CCCCNc1ccc(C(=O)OCCN(C)C)cc1 [tetracaine],IC50,[1]; [2],22500 nM
"NC1=N[C@H](O)[C@H]2[C@H]3O[C@]4(O)O[C@@H]([C@@H](O)[C@@]2(N1)[C@@H]4O)[C@]3(O)CO [TTX, Tetrodotoxin]",Hill Slope,[1],0.997 ± 0.068 and 0.910 ± 0.120 and 1.167 ± 0.204 and 0.801 ± 0.149 and 1.089 ± 0.097
same,Reversibility of Nav current blockage,[1],could be reversed
same,TTX concentration giving 20% blockade (minimum detectable blockade),[1],0.5 ng/mL
same,Inhibition of Nav currents,[1]; 0.1 µM,completely inhibited; also recorded: complete inhibitions
same,IC50,[1]; read-out: IC50 (blockade of Nav currents),6.4 nM
same,IC50,[1]; read-out: IC50 Value,4.93 nM and 5.02 nM and 5.12 nM and 4.26 nM and 6.38 nM
"C[C@@H]1C[C@@H]2[C@@H](O)N=C(N)N[C@]23[C@H](O)C(=O)O[C@H]1[C@H]3O [5,6,11-trideoxyTTX]",Toxicity equivalency factor (TEF),Neuro-2a cells,0.011
